According to US20240343666A1, “PERINAPHTHENONE COMPOUND AND USE THEREOF” (INSTITUTE OF MEDICINAL BIOTECHNOLOGY, CHINESE ACADEMY OF …, priority 2021, published 2024):

Biological target: TRIM25 (Homo sapiens, UniProt Q14258)
Format: cell-based
Design: endogenous in cells

Sequence of TRIM25 (Q14258 whole entry, species assumed): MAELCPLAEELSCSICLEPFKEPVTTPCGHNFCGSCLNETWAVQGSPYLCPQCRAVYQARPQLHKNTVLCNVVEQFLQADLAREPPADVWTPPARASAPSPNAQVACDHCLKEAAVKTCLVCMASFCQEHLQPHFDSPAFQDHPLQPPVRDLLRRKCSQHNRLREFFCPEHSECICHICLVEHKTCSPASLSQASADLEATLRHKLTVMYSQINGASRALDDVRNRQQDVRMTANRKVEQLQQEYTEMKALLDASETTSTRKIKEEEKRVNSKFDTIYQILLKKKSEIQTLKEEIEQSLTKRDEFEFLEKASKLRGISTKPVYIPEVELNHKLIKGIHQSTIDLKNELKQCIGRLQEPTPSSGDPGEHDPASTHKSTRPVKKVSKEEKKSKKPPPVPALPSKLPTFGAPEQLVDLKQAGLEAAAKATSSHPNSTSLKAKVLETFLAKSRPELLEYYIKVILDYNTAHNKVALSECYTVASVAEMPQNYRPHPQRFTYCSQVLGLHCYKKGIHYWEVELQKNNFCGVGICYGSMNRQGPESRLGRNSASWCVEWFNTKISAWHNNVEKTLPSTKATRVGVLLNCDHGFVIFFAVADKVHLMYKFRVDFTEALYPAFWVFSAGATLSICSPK

C/C(=C\CC/C(C)=C/C[C@]1(O)C(=O)c2c(O)cc(C)c3c(O)c(C)c(O)c(c23)C1=O)CC/C=C(\CO)CC[C@@H](O)C(C)(C)O [Compound C1]
Anti-influenza activity after TRIM25 knockdown: significantly affected
Anti-influenza activity on overexpression of TRIM25 in TRIM25 knockout cell line: restore the anti-influenza activity of compound C1 to a normal cell level
